Results reported in ChEMBL document CHEMBL1147043, “Comparative metabolism of radiolabeled muraglitazar in animals and humans by quantitative and qualitative metabolite profiling” (Drug Metab Dispos, 2007).

Experiments:
[1] = Biodistribution in orally dosed human feces assessed as 8-hydroxy-O-demethyl muraglitazar level by LC/MS analysis; format: ADME, organism-based; conditions: in vivo, po
[2] = Biodistribution in orally dosed human feces assessed as 17-hydroxy muraglitazar level by LC/MS analysis; format: ADME, organism-based; conditions: in vivo, po
[3] = Biodistribution in orally dosed cynomolgus monkey feces assessed as acetylimide derivative of muraglitazar level by LC/MS analysis; format: ADME, organism-based, Macaca fascicularis; conditions: in vivo, po
[4] = Biodistribution in orally dosed human feces assessed as 9-hydroxy-O-demethyl muraglitazar level by LC/MS analysis; format: ADME, organism-based; conditions: in vivo, po
[5] = Drug concentration in bile duct-cannulated cynomolgus monkey feces assessed as recovery of radioactive dose at 5 mg/kg, po after 48 hrs; format: ADME, organism-based, Macaca fascicularis; set-up: dose 5 mg/kg, route oral; conditions: in vivo
[6] = Biodistribution in orally dosed cynomolgus monkey urine assessed as O-dealkyl muraglitazar level by LC/MS analysis; format: ADME, organism-based, Macaca fascicularis; conditions: in vivo, po
Hepatocyte [7] = assay: Metabolic stability in human hepatocytes assessed as hydroxyl muraglitazar glucuronide level by LC/MS analysis relative to control; format: ADME, cell-based
Plasma [8] = assay: Biodistribution in orally dosed Beagle dog plasma assessed as O-Dealkyl muraglitazar level after 12 hrs by LC/MS analysis; format: ADME, organism-based, Canis lupus familiaris; conditions: in vivo, po
[9] = Biodistribution in orally dosed cynomolgus monkey urine assessed as 8-hydroxy-O-demethyl muraglitazar level by LC/MS analysis; format: ADME, organism-based, Macaca fascicularis; conditions: in vivo, po
Plasma [10] = assay: Biodistribution in orally dosed cynomolgus monkey plasma assessed as 12,17-dihydroxy muraglitazar level after 12 hrs by LC/MS analysis; format: ADME, organism-based, Macaca fascicularis; conditions: in vivo, po
[11] = Metabolic stability in cynomolgus monkey hepatocytes assessed as O-demethyl muraglitazar level by LC/MS analysis relative to control; format: ADME, cell-based, Macaca fascicularis, Hepatocyte
Plasma [12] = assay: Biodistribution in orally dosed cynomolgus monkey plasma assessed as 17-hydroxy-O-demethyl muraglitazar level after 4 hrs by LC/MS analysis; format: ADME, organism-based, Macaca fascicularis; conditions: in vivo, po
Plasma [13] = assay: Biodistribution in orally dosed Beagle dog plasma assessed as O-demethyl muraglitazar level after 12 hrs by LC/MS analysis; format: ADME, organism-based, Canis lupus familiaris; conditions: in vivo, po
[14] = Metabolic stability in cynomolgus monkey hepatocytes assessed as 12,17-dihydroxy muraglitazar level by LC/MS analysis relative to control; format: ADME, cell-based, Macaca fascicularis, Hepatocyte
[15] = Biodistribution in orally dosed cynomolgus monkey feces assessed as 12,17-dihydroxy muraglitazar level by LC/MS analysis; format: ADME, organism-based, Macaca fascicularis; conditions: in vivo, po
Plasma [16] = assay: Biodistribution in orally dosed Sprague-Dawley rat plasma assessed as 17-dihydroxy muraglitazar level after 12 hrs by LC/MS analysis; format: ADME, organism-based; conditions: in vivo, po
[17] = Biodistribution in orally dosed Beagle dog feces assessed as acetylimide derivative of muraglitazar level by LC/MS analysis; format: ADME, organism-based, Canis lupus familiaris; conditions: in vivo, po
[18] = Biodistribution in orally dosed human urine assessed as 12-hydroxy-O-demethyl muraglitazar level by LC/MS analysis; format: ADME, organism-based; conditions: in vivo, po
[19] = Biodistribution in orally dosed human feces assessed as 12-hydroxy-O-demethyl muraglitazar level by LC/MS analysis; format: ADME, organism-based; conditions: in vivo, po
[20] = Biodistribution in orally dosed cynomolgus monkey feces assessed as O-demethyl muraglitazar level by LC/MS analysis; format: ADME, organism-based, Macaca fascicularis; conditions: in vivo, po
Plasma [21] = assay: Biodistribution in orally dosed cynomolgus monkey plasma assessed as muraglitazar glucuronide level after 4 hrs by LC/MS analysis; format: ADME, organism-based, Macaca fascicularis; conditions: in vivo, po
Plasma [22] = assay: Biodistribution in orally dosed human plasma assessed as O-demethyl muraglitazar level after 1 hr by LC/MS analysis; format: ADME, organism-based; conditions: in vivo, po
[23] = Fecal excretion of compound in orally dosed cynomolgus monkey within 96 hrs; format: ADME, organism-based, Macaca fascicularis; conditions: faeces, po, read-out: Activity
[24] = Biodistribution in orally dosed cynomolgus monkey feces assessed as muraglitazar 12-carboxylic acid level by LC/MS analysis; format: ADME, organism-based, Macaca fascicularis; conditions: in vivo, po
[25] = Biodistribution in orally dosed human urine assessed as muraglitazar glucuronide level by LC/MS analysis; format: ADME, organism-based; conditions: in vivo, po
[26] = Metabolic stability in cynomolgus monkey hepatocytes assessed as 9-hydroxy-O-demethyl muraglitazar level by LC/MS analysis relative to control; format: ADME, cell-based, Macaca fascicularis, Hepatocyte
[27] = Fecal excretion of compound in bile duct-cannulated orally dosed cynomolgus monkey within 48 hrs; format: ADME, organism-based, Macaca fascicularis; conditions: faeces, po, read-out: Activity
Hepatocyte [28] = assay: Metabolic stability in Sprague-Dawley rat hepatocytes assessed as hydroxyl-O-demethyl muraglitazar glucuronide level by LC/MS analysis relative to control; format: ADME, cell-based
[29] = Biodistribution in orally dosed cynomolgus monkey urine assessed as 12-hydroxy-O-demethyl muraglitazar level by LC/MS analysis; format: ADME, organism-based, Macaca fascicularis; conditions: in vivo, po
[30] = Biodistribution in orally dosed Beagle dog feces assessed as 12-hydroxy-O-demethyl muraglitazar level by LC/MS analysis; format: ADME, organism-based, Canis lupus familiaris; conditions: in vivo, po
[31] = Drug concentration in human urine at 10 mg/kg, po after 8 hrs; format: ADME, organism-based; set-up: dose 10 mg/kg, route oral; conditions: read-out: Drug uptake
Plasma [32] = assay: Biodistribution in orally dosed Beagle dog plasma assessed as 12-hydroxy-O-demethyl muraglitazar level after 1 hr by LC/MS analysis; format: ADME, organism-based, Canis lupus familiaris; conditions: in vivo, po
Plasma [33] = assay: Biodistribution in orally dosed Sprague-Dawley rat plasma assessed as O-Dealkyl muraglitazar level after 12 hrs by LC/MS analysis; format: ADME, organism-based; conditions: in vivo, po
Hepatocyte [34] = assay: Metabolic stability in Sprague-Dawley rat hepatocytes assessed as O-demethyl muraglitazar glucuronide level by LC/MS analysis relative to control; format: ADME, cell-based
Hepatocyte [35] = assay: Metabolic stability in human hepatocytes assessed as 8-hydroxy-O-demethyl muraglitazar level by LC/MS analysis relative to control; format: ADME, cell-based
Rattus norvegicus [36] = assay: Biodistribution in orally dosed Sprague-Dawley rat urine assessed as 8-hydroxy-O-demethyl muraglitazar level by LC/MS analysis; format: ADME, organism-based; conditions: in vivo, po
[37] = Biodistribution in orally dosed cynomolgus monkey feces assessed as 8,12-dihydroxy muraglitazar level by LC/MS analysis; format: ADME, organism-based, Macaca fascicularis; conditions: in vivo, po
[38] = Bile excretion of compound in bile duct-cannulated orally dosed cynomolgus monkey within 48 hrs; format: ADME, organism-based, Macaca fascicularis; conditions: po, read-out: Activity
[39] = Biodistribution in orally dosed cynomolgus monkey urine assessed as 17-hydroxy-O-demethyl muraglitazar level by LC/MS analysis; format: ADME, organism-based, Macaca fascicularis; conditions: in vivo, po
[40] = Metabolic stability in cynomolgus monkey hepatocytes assessed as muraglitazar glucuronide level by LC/MS analysis relative to control; format: ADME, cell-based, Macaca fascicularis, Hepatocyte
[41] = Metabolic stability in CD1 mouse hepatocytes assessed as 8-hydroxy-O-demethyl muraglitazar level by LC/MS analysis relative to control; format: ADME, cell-based, Hepatocyte
Rattus norvegicus [42] = assay: Biodistribution in orally dosed Sprague-Dawley rat urine assessed as 9-hydroxy-O-demethyl muraglitazar level by LC/MS analysis; format: ADME, organism-based; conditions: in vivo, po
[43] = Biodistribution in orally dosed human feces assessed as muraglitazar 12-carboxylic acid level by LC/MS analysis; format: ADME, organism-based; conditions: in vivo, po
[44] = Metabolic stability in CD1 mouse hepatocytes assessed as muraglitazar glucuronide level by LC/MS analysis relative to control; format: ADME, cell-based, Hepatocyte
[45] = Biodistribution in orally dosed human feces assessed as 8,12-dihydroxy muraglitazar level by LC/MS analysis; format: ADME, organism-based; conditions: in vivo, po
[46] = Biodistribution in orally dosed cynomolgus monkey feces assessed as 9-hydroxy muraglitazar level by LC/MS analysis; format: ADME, organism-based, Macaca fascicularis; conditions: in vivo, po
Hepatocyte [47] = assay: Metabolic stability in human hepatocytes assessed as di-oxygenated muraglitazar level by LC/MS analysis relative to control; format: ADME, cell-based
[48] = Metabolic stability in cynomolgus monkey hepatocytes assessed as radioactivity recovaries at 25.6 ug/mL after 4 hrs; format: ADME, cell-based, Macaca fascicularis, Hepatocyte
Hepatocyte [49] = assay: Metabolic stability in Sprague-Dawley rat hepatocytes assessed as 9-hydroxy-O-demethyl muraglitazar level by LC/MS analysis relative to control; format: ADME, cell-based
[50] = Drug concentration in bile duct-cannulated CD1 mouse urine assessed as recovery of radioactive dose at 40 mg/kg, po after 24 hrs; format: ADME, organism-based; set-up: dose 40 mg/kg, route oral; conditions: in vivo
Plasma [51] = assay: Biodistribution in orally dosed human plasma assessed as 8-hydroxy-O-demethyl muraglitazar level after 4 hrs by LC/MS analysis; format: ADME, organism-based; conditions: in vivo, po
Plasma [52] = assay: Biodistribution in orally dosed cynomolgus monkey plasma assessed as 17-dihydroxy muraglitazar level after 4 hrs by LC/MS analysis; format: ADME, organism-based, Macaca fascicularis; conditions: in vivo, po

COc1ccc(OC(=O)N(CC(=O)O)Cc2ccc(OCCc3nc(-c4ccccc4)oc3C)cc2)cc1 [MURAGLITAZAR]
Drug uptake [1]: 0.56% | Drug uptake [2]: 5.92% | Drug uptake [3]: 0.16% | Drug uptake [4]: 2.21% | Drug uptake [5]: 15% | Drug uptake [6]: 1.04% | Drug uptake (Hepatocyte [7]): 0.2% | Drug uptake (Plasma [8]): 9% | Drug uptake [9]: 0.08% | Drug uptake (Plasma [10]): 1% | Drug uptake [11]: 2.1% | Drug uptake (Plasma [12]): < 0.05% | Drug uptake (Plasma [13]): 9% | Drug uptake [14]: < 0.2% | Drug uptake [15]: 6.43% | Drug uptake (Plasma [16]): < 0.05% | Drug uptake [17]: 0.18% | Drug uptake [18]: 0.16% | Drug uptake [19]: 11.45% | Drug uptake [20]: 7.24% | Drug uptake (Plasma [21]): 0.2% | Drug uptake (Plasma [22]): 0.2% | dose excreted at 96 h [23]: 75% | Drug uptake [24]: 1.61% | Drug uptake [25]: 1% | Drug uptake [26]: 0.5% | dose excreted at 48 h [27]: 15% | Drug uptake (Hepatocyte [28]): < 0.2% | Drug uptake [29]: 0.26% | Drug uptake [30]: 0.38% | dose excreted at 8 h [31]: 1.3% | Drug uptake (Plasma [32]): 1% | Drug uptake (Plasma [33]): 0.05% | Drug uptake (Hepatocyte [34]): < 0.2% | Drug uptake (Hepatocyte [35]): < 0.2% | Drug uptake (Rattus norvegicus [36]): 0.05% | Drug uptake [37]: 0.16% | dose excreted at 48 h [38]: 36% | Drug uptake [39]: 0.01% | Drug uptake [40]: 1.7% | Drug uptake [41]: 4.8% | Drug uptake (Rattus norvegicus [42]): 0.43% | Drug uptake [43]: 0.13% | Drug uptake [44]: 5.2% | Drug uptake [45]: 1.36% | Drug uptake [46]: 0.56% | Drug uptake (Hepatocyte [47]): 4.5% | Stability [48]: 99.2% | Drug uptake (Hepatocyte [49]): < 0.2% | Drug uptake [50]: 16.1% | Drug uptake (Plasma [51]): < 0.05% | Drug uptake (Plasma [52]): 16.2%
